Measurements taken from PubChem BioAssay AID1963436 (Molecular Pharmacology Branch, DTP, NCI, 2024).

Test system: OVCAR-5 complex spheroid (HUVEC/MSC), viability % T/C
Experiment: Anticancer human tumor OVCAR-5 cell line growth inhibition [Asc];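 also: spheroids exposed to agents for 7 days before readout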;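 as to viability, T/C: 100% = DMSO vehicle-treated wells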
Conditions: for IC50: curve of first compound; for viability, T/C: stronger effect = lower value
Summary of the method: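 Complex solid-tumor spheroids incorporating human endothelial and mesenchymal stem cells received single agents or combinations over half-log dilution ranges anchored to clinical Cmax.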

## CCN1C(C(=O)NC23CCC(C(=O)O)(CC2)CC3)C(c2cccc(Cl)c2F)C2(C(=O)Nc3cc(Cl)ccc32)C12CCCCC2 (stereo not given) + Cc1c(S(C)(=O)=O)c(-c2cc(F)cc(N3CCN(c4ccc(NS(=O)(=O)c5ccc(NC(CCN6CCC(C(=O)OCCCP(=O)(O)O)CC6)CSc6ccccc6)c(S(=O)(=O)C(F)(F)F)c5)cc4)CC3)c2)c(-c2ccc(Cl)cc2)n1C(C)C
Second compound 0.1 µM
  IC50: > 3 µM
Second compound 0.316 µM
  IC50: > 3 µM
Second compound 1 µM
  IC50: > 3 µM
Second compound 3.16 µM
  IC50: > 3 µM
Second compound 10 µM
  IC50: > 3 µM
Second compound 0.1 µM, first compound 0.00949 µM
  viability, T/C: 102%
Second compound 0.1 µM, first compound 0.03 µM
  viability, T/C: 93.8%
Second compound 0.1 µM, first compound 0.0949 µM
  viability, T/C: 93.1%
Second compound 0.1 µM, first compound 0.3 µM
  viability, T/C: 86.9%
Second compound 0.1 µM, first compound 0.949 µM
  viability, T/C: 97.3%
Second compound 0.1 µM, first compound 3 µM
  viability, T/C: 92.5%
Second compound 0.316 µM, first compound 0.00949 µM
  viability, T/C: 86.3%
Second compound 0.316 µM, first compound 0.03 µM
  viability, T/C: 101%
Second compound 0.316 µM, first compound 0.0949 µM
  viability, T/C: 90.2%
Second compound 0.316 µM, first compound 0.3 µM
  viability, T/C: 82.8%
Second compound 0.316 µM, first compound 0.949 µM
  viability, T/C: 91.3%
Second compound 0.316 µM, first compound 3 µM
  viability, T/C: 83.3%
Second compound 1 µM, first compound 0.00949 µM
  viability, T/C: 88%
Second compound 1 µM, first compound 0.03 µM
  viability, T/C: 85.5%
Second compound 1 µM, first compound 0.0949 µM
  viability, T/C: 88.5%
Second compound 1 µM, first compound 0.3 µM
  viability, T/C: 86.9%
Second compound 1 µM, first compound 0.949 µM
  viability, T/C: 75.4%
Second compound 1 µM, first compound 3 µM
  viability, T/C: 83%
Second compound 3.16 µM, first compound 0.00949 µM
  viability, T/C: 84.7%
Second compound 3.16 µM, first compound 0.03 µM
  viability, T/C: 92.4%
Second compound 3.16 µM, first compound 0.0949 µM
  viability, T/C: 97.4%
Second compound 3.16 µM, first compound 0.3 µM
  viability, T/C: 78.7%
Second compound 3.16 µM, first compound 0.949 µM
  viability, T/C: 74.1%
Second compound 3.16 µM, first compound 3 µM
  viability, T/C: 69.3%
Second compound 10 µM, first compound 0.00949 µM
  viability, T/C: 114%
Second compound 10 µM, first compound 0.03 µM
  viability, T/C: 122%
Second compound 10 µM, first compound 0.0949 µM
  viability, T/C: 126%
Second compound 10 µM, first compound 0.3 µM
  viability, T/C: 111%
Second compound 10 µM, first compound 0.949 µM
  viability, T/C: 102%
Second compound 10 µM, first compound 3 µM
  viability, T/C: 89.8%

## CNC(C)C(=O)NC1CN(S(=O)(=O)c2cccc(S(=O)(=O)N3CCC4CCC(C(=O)NC(c5ccccc5)c5ccccc5)N4C(=O)C(NC(=O)C(C)NC)C3)c2)CCC2CCC(C(=O)NC(c3ccccc3)c3ccccc3)N2C1=O (stereo not given) + Cc1c(S(C)(=O)=O)c(-c2cc(F)cc(N3CCN(c4ccc(NS(=O)(=O)c5ccc(NC(CCN6CCC(C(=O)OCCCP(=O)(O)O)CC6)CSc6ccccc6)c(S(=O)(=O)C(F)(F)F)c5)cc4)CC3)c2)c(-c2ccc(Cl)cc2)n1C(C)C
Second compound 0.1 µM
  IC50: > 1 µM
Second compound 0.316 µM
  IC50: > 1 µM
Second compound 1 µM
  IC50: > 1 µM
Second compound 3.16 µM
  IC50: > 1 µM
Second compound 10 µM
  IC50: > 1 µM
Second compound 0.1 µM, first compound 0.00316 µM
  viability, T/C: 97.7%
Second compound 0.1 µM, first compound 0.01 µM
  viability, T/C: 91.1%
Second compound 0.1 µM, first compound 0.0316 µM
  viability, T/C: 83.2%
Second compound 0.1 µM, first compound 0.1 µM
  viability, T/C: 79.3%
Second compound 0.1 µM, first compound 0.316 µM
  viability, T/C: 85.2%
Second compound 0.1 µM, first compound 1 µM
  viability, T/C: 76.1%
Second compound 0.316 µM, first compound 0.00316 µM
  viability, T/C: 96.2%
Second compound 0.316 µM, first compound 0.01 µM
  viability, T/C: 87.7%
Second compound 0.316 µM, first compound 0.0316 µM
  viability, T/C: 78%
Second compound 0.316 µM, first compound 0.1 µM
  viability, T/C: 77.8%
Second compound 0.316 µM, first compound 0.316 µM
  viability, T/C: 74.8%
Second compound 0.316 µM, first compound 1 µM
  viability, T/C: 81%
Second compound 1 µM, first compound 0.00316 µM
  viability, T/C: 90.7%
Second compound 1 µM, first compound 0.01 µM
  viability, T/C: 86.9%
Second compound 1 µM, first compound 0.0316 µM
  viability, T/C: 78.8%
Second compound 1 µM, first compound 0.1 µM
  viability, T/C: 75.2%
Second compound 1 µM, first compound 0.316 µM
  viability, T/C: 67.1%
Second compound 1 µM, first compound 1 µM
  viability, T/C: 75%
Second compound 3.16 µM, first compound 0.00316 µM
  viability, T/C: 89.1%
Second compound 3.16 µM, first compound 0.01 µM
  viability, T/C: 94.3%
Second compound 3.16 µM, first compound 0.0316 µM
  viability, T/C: 83%
Second compound 3.16 µM, first compound 0.1 µM
  viability, T/C: 68.1%
Second compound 3.16 µM, first compound 0.316 µM
  viability, T/C: 71.5%
Second compound 3.16 µM, first compound 1 µM
  viability, T/C: 81.6%
Second compound 10 µM, first compound 0.00316 µM
  viability, T/C: 119%
Second compound 10 µM, first compound 0.01 µM
  viability, T/C: 130%
Second compound 10 µM, first compound 0.0316 µM
  viability, T/C: 121%
Second compound 10 µM, first compound 0.1 µM
  viability, T/C: 99.8%
Second compound 10 µM, first compound 0.316 µM
  viability, T/C: 108%
Second compound 10 µM, first compound 1 µM
  viability, T/C: 96.8%
